Test results: patent publication US20250361268A1, “NOVEL ANTI-INFLAMMATORY PEPTIDE AND USE THEREOF” (NOVACELL TECHNOLOGY INC., priority 2022, published 2025)
Peptide text beside a SMILES is read from it.

Key:
[1] = molecular target: T1, FPR1 (Homo sapiens, UniProt P21462); assay: Change in calcium activity by peptide, FPR1 activation effect; assay type: cell-based; conditions: calcium activity (Fura-2), graded per Table 3, read-out: EC50 for [Ca^2+] FPR1
T1 sequence (P21462 1-350): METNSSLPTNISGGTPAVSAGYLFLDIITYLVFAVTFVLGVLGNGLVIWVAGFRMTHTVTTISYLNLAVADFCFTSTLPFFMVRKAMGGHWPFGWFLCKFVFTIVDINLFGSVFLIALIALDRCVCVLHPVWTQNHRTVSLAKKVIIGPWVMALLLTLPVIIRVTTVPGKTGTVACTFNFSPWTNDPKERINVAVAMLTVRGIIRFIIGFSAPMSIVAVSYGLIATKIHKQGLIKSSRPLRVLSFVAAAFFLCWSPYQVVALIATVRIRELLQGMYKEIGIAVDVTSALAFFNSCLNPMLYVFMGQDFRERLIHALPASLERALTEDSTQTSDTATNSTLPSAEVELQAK
In short: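 Calcium flux induced by peptide addition was monitored on a FlexStation 3 plate reader. Before this, cells seeded a day earlier (3×10^5/well) took up the Fura-2 dye for 1 h at 37 °C plus 30 min dark at room temperature.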

[2] = test system: RAW264.7 cell line; assay: Cytokine inhibition ability: LPS-induced cytokine gene expression in RAW264.7 macrophages; assay type: cell-based, mouse; conditions: grade of reduction rate of gene expression, peptide 100 nM, LPS 200 ng/mL, 6 hours
Procedure: The present inventors observed the cytokine inhibition ability of the immunomodulatory peptide candidates prepared according to one example of the present invention. Specifically, to confirm whether the peptides reduce inflammatory responses in cells, changes in cytokine gene expression in cells upon inflammation was measured.
The present inventors used a RAW264.7 cell line, that is, mouse macrophages, and used lipopolysaccharide (LPS; Sigma-Aldrich, #L2630), which is the main component of a gram-negative bacterial cell wall, as a material causing an inflammatory response. A peptide that had been dissolved in water at 100 μM was prepared.
In the present experiment, the cells were cultured in a DMEM (Lonza, #BE12-604F) containing 10% FBS and 1% penicillin-streptomycin under conditions of 37° C. and 5% CO2.
The cells were plated in a 24-well plate (Costar, #3603) at a density of 2.5×10^5 cells/well. After 24 hours, the prepared cells were treated with the peptide at 100 nM. After incubation at 37° C. for 30 minutes, to induce inflammation, 200 ng/mL of LPS was treated. After incubation at 37° C. for 6 hours, the cells in a medium-free state were treated with TRIzol™ (Invitrogen, #15596018) to lyse the cells. Through the given experimental method, RNA was obtained, cDNA was produced using a reverse transcriptase (Promega, #M1705). Afterward, a cytokine expression level was measured using SYBR Green (Enzynomics, RT530) and mouse primers of each inflammatory cytokine gene (TNFα, IL-6, and IL-1β).

[3] = molecular target: T2, FPR2 (Homo sapiens, UniProt P25090); assay: Change in calcium activity by peptide (Fura-2) in RBL cells overexpressing FPR2; assay type: cell-based; conditions: calcium activity (Fura-2), graded per Table 3, read-out: EC50 for [Ca^2+] FPR2
T2 construct: expressed in transfected cells; host or cells: RBL cells (RBL-FPR2)
T2 sequence (P25090 1-351): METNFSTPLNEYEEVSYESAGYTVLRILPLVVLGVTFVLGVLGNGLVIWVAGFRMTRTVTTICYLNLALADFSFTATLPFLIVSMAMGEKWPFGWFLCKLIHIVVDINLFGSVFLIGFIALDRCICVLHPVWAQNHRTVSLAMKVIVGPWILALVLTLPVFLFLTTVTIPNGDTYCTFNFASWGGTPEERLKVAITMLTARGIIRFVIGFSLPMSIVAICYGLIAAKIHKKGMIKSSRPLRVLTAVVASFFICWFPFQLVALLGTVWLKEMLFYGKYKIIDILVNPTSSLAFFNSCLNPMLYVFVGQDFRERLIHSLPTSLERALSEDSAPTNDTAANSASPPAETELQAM
In short: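 Peptide-induced intracellular calcium change measured by Fura-2 fluorescence on a plate reader. Cells: RBL line overexpressing FPR2, dye-loaded 1 h at 37 °C then 30 min at RT in dark; peptides from 0.5 mM water/50% DMSO stocks, diluted in HBSS with 20 mM HEPES.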

SMILES | EC50 [1] [nM] | Cytokine inhibition ability IL-1β [2] | Cytokine inhibition ability IL-6 [2] | Cytokine inhibition ability TNFα [2] | EC50 [3] [nM]
CCCCCCCC(=O)N[C@@H](CCSC)C(=O)N[C@@H](CCCCN)C(=O)N[C@@H](Cc1ccc(O)cc1)C(=O)N[C@@H](Cc1c[nH]c2ccccc12)C(=O)N1CCC[C@H]1C(=O)N[C@H](CCSC)C(N)=O [Peptide 116] (HELM PEPTIDE1{[CCCCCCCC(=O)[*:2]].M.K.Y.W.P.[dM].[am]}$$$$V2.0) | 1000 to 10000 | B (61%-80%) | B (61%-80%) | B (61%-80%) | 11 to 100
CSCC[C@H](N)C(=O)N[C@@H](CCCCN)C(=O)N[C@@H](Cc1ccc(O)cc1)C(=O)N[C@@H](Cc1c[nH]c2ccccc12)C(=O)N1CCC[C@H]1C(=O)N[C@H](CCSC)C(N)=O [Peptide 113] (HELM PEPTIDE1{M.K.Y.W.P.[dM].[am]}$$$$V2.0) | 1000 to 10000 | D (21%-40%) | B (61%-80%) | D (21%-40%) | < 10
CSCC[C@H](NC(C)=O)C(=O)N[C@@H](CCCCN)C(=O)N[C@@H](Cc1ccc(O)cc1)C(=O)N[C@@H](CCCCN)C(=O)N[C@H](C(=O)N[C@H](CCSC)C(N)=O)C(C)C [Peptide 18] (HELM PEPTIDE1{[ac].M.K.Y.K.V.[dM].[am]}$$$$V2.0) | > 10000 | A (81%-100%) | D (21%-40%) | A (81%-100%) | < 10
CCCCCCCC(=O)N[C@@H](CCSC)C(=O)N[C@@H](CCCCN)C(=O)N[C@@H](Cc1ccc(O)cc1)C(=O)N[C@@H](CCCCN)C(=O)N1CCC[C@H]1C(=O)N[C@H](CCSC)C(N)=O [Peptide 73] (HELM PEPTIDE1{[CCCCCCCC(=O)[*:2]].M.K.Y.K.P.[dM].[am]}$$$$V2.0) | > 10000 | B (61%-80%) | D (21%-40%) | B (61%-80%) | 11 to 100
CCCCCCCC(=O)N[C@@H](CCCNC(=N)N)C(=O)N[C@@H](CCSC)C(=O)N[C@@H](CCCNC(=N)N)C(=O)N[C@@H](Cc1ccc(O)cc1)C(=O)N[C@@H](CCCCN)C(=O)N[C@@H](Cc1ccc(O)cc1)C(=O)N[C@H](CCSC)C(N)=O [Peptide 40] (HELM PEPTIDE1{[CCCCCCCC(=O)[*:2]].R.M.R.Y.K.Y.[dM].[am]}$$$$V2.0) | > 10000 | A (81%-100%) | C (41%-60%) | B (61%-80%) | 11 to 100
CCCCCCCC(=O)N[C@@H](CCCNC(=N)N)C(=O)N[C@@H](CCSC)C(=O)N[C@@H](CCCNC(=N)N)C(=O)N[C@@H](Cc1ccc(O)cc1)C(=O)N[C@@H](Cc1c[nH]c2ccccc12)C(=O)N[C@@H](Cc1ccc(O)cc1)C(=O)N[C@H](CCSC)C(N)=O [Peptide 84] (HELM PEPTIDE1{[CCCCCCCC(=O)[*:2]].R.M.R.Y.W.Y.[dM].[am]}$$$$V2.0) | > 10000 | B (61%-80%) | E (0%-20%) | A (81%-100%) | 11 to 100
CSCC[C@H](NC(=O)[C@H](CCCNC(=N)N)NC(C)=O)C(=O)N[C@@H](CCCNC(=N)N)C(=O)N[C@@H](Cc1ccc(O)cc1)C(=O)N[C@@H](CCCCN)C(=O)N[C@@H](Cc1ccc(O)cc1)C(=O)N[C@H](CCSC)C(N)=O [Peptide 39] (HELM PEPTIDE1{[ac].R.M.R.Y.K.Y.[dM].[am]}$$$$V2.0) | > 10000 | B (61%-80%) | D (21%-40%) | B (61%-80%) | 11 to 100
CCCCCCCC(=O)N[C@@H](CCSC)C(=O)N[C@@H](CCCCN)C(=O)N[C@@H](Cc1ccc(O)cc1)C(=O)N[C@@H](CCCCN)C(=O)N[C@H](C(=O)N[C@H](CCSC)C(N)=O)C(C)C [Peptide 20] (HELM PEPTIDE1{[CCCCCCCC(=O)[*:2]].M.K.Y.K.V.[dM].[am]}$$$$V2.0) | > 10000 | B (61%-80%) | B (61%-80%) | B (61%-80%) | 11 to 100
CSCC[C@H](NC(C)=O)C(=O)N[C@@H](CCCCN)C(=O)N[C@@H](Cc1ccc(O)cc1)C(=O)N[C@@H](Cc1c[nH]c2ccccc12)C(=O)N1CCC[C@H]1C(=O)N[C@H](CCSC)C(N)=O [Peptide 114] (HELM PEPTIDE1{[ac].M.K.Y.W.P.[dM].[am]}$$$$V2.0) | 1000 to 10000 | B (61%-80%) | E (0%-20%) | A (81%-100%) | < 10
CSCC[C@H](N)C(=O)N[C@@H](CCCCN)C(=O)N[C@@H](Cc1ccc(O)cc1)C(=O)N[C@@H](CCCCN)C(=O)N1CCC[C@H]1C(=O)N[C@H](CCSC)C(N)=O [Peptide 70] (HELM PEPTIDE1{M.K.Y.K.P.[dM].[am]}$$$$V2.0) | > 10000 | A (81%-100%) | D (21%-40%) | C (41%-60%) | < 10
CSCC[C@H](NC(C)=O)C(=O)N[C@@H](CCCNC(=N)N)C(=O)N[C@@H](Cc1ccc(O)cc1)C(=O)N[C@@H](CCCCN)C(=O)N1CCC[C@H]1C(=O)N[C@H](CCSC)C(N)=O [Peptide 55] (HELM PEPTIDE1{[ac].M.R.Y.K.P.[dM].[am]}$$$$V2.0) | > 10000 | A (81%-100%) | B (61%-80%) | B (61%-80%) | < 10
CSCC[C@H](NC(=O)[C@@H](N)CCCNC(=N)N)C(=O)N[C@@H](CCCNC(=N)N)C(=O)N[C@@H](Cc1ccc(O)cc1)C(=O)N[C@@H](CCCCN)C(=O)N[C@@H](Cc1ccc(O)cc1)C(=O)N[C@H](CCSC)C(N)=O [Peptide 38] (HELM PEPTIDE1{R.M.R.Y.K.Y.[dM].[am]}$$$$V2.0) | > 10000 | A (81%-100%) | C (41%-60%) | B (61%-80%) | < 10
CCCC(=O)N[C@@H](CCSC)C(=O)N[C@@H](CCCCN)C(=O)N[C@@H](Cc1ccc(O)cc1)C(=O)N[C@@H](Cc1c[nH]c2ccccc12)C(=O)N1CCC[C@H]1C(=O)N[C@H](CCSC)C(N)=O [Peptide 115] (HELM PEPTIDE1{[CCCC(=O)[*:2]].M.K.Y.W.P.[dM].[am]}$$$$V2.0) | 1000 to 10000 | B (61%-80%) | B (61%-80%) | C (41%-60%) | < 10
CSCC[C@H](NC(C)=O)C(=O)N[C@@H](CCCCN)C(=O)N[C@@H](Cc1ccc(O)cc1)C(=O)N[C@@H](CCCCN)C(=O)N1CCC[C@H]1C(=O)N[C@H](CCSC)C(N)=O [Peptide 71] (HELM PEPTIDE1{[ac].M.K.Y.K.P.[dM].[am]}$$$$V2.0) | > 10000 | A (81%-100%) | C (41%-60%) | C (41%-60%) | 11 to 100
CSCC[C@H](NC(=O)[C@H](CCCNC(=N)N)NC(C)=O)C(=O)N[C@@H](CCCNC(=N)N)C(=O)N[C@@H](Cc1ccc(O)cc1)C(=O)N[C@@H](Cc1c[nH]c2ccccc12)C(=O)N[C@@H](Cc1ccc(O)cc1)C(=O)N[C@H](CCSC)C(N)=O [Peptide 82] (HELM PEPTIDE1{[ac].R.M.R.Y.W.Y.[dM].[am]}$$$$V2.0) | > 10000 | B (61%-80%) | D (21%-40%) | A (81%-100%) | < 10
